Reference: ChEMBL document CHEMBL2057178, “Novel synthetic route to the C-nucleoside, 2-deoxy benzamide riboside” (Bioorg Med Chem Lett, 2012)
Active and inactive are the calls of the source. The calls are words filed in the database; no cut-off is given here.

Legend:
Assay type in all cases: functional, cell-based
[1] = system: MCF7; assay: Growth inhibition of human MCF7 cells at 50 uM
[2] = system: PC-3; assay: Growth inhibition of human PC3 cells at 500 uM
[3] = system: HCT-116; assay: Growth inhibition of human HCT116 cells up to 1 mM relative to DMSO-treated control
[4] = system: HT-29; assay: Growth inhibition of human HT-29 cells up to 1 mM relative to DMSO-treated control
[5] = system: PC-3; assay: Growth inhibition of human PC3 cells up to 1 mM relative to DMSO-treated control
[6] = system: T47D; assay: Growth inhibition of human T47D cells up to 1 mM relative to DMSO-treated control
[7] = system: RKO; assay: Growth inhibition of human RKO cells up to 1 mM relative to DMSO-treated control
[8] = system: DU-145; assay: Growth inhibition of human DU145 cells up to 1 mM relative to DMSO-treated control
[9] = system: MCF7; assay: Growth inhibition of human MCF7 cells up to 1 mM relative to DMSO-treated control
[10] = system: NCI-H460; assay: Growth inhibition of human H460 cells up to 1 mM relative to DMSO-treated control

NC(=O)c1cccc([C@@H]2O[C@H](CO)[C@@H](O)[C@H]2O)c1
growth inhibition (GI) [1]: Active

NC(=O)c1csc([C@@H]2O[C@H](CO)[C@@H](O)[C@H]2O)n1
growth inhibition (GI) [2]: Active

NC(=O)c1cccc([C@H]2C[C@H](O)[C@@H](CO)O2)c1 (racemic)
growth inhibition (GI) [3]: inactive | growth inhibition (GI) [4]: inactive | growth inhibition (GI) [5]: inactive | growth inhibition (GI) [6]: inactive | growth inhibition (GI) [7]: inactive | growth inhibition (GI) [8]: inactive | growth inhibition (GI) [9]: inactive | growth inhibition (GI) [10]: inactive
